“And” between values parts separate entries of the source, which are not always exact repeats. Identical values can stand only once. Like-named read-outs stand apart in the source and are kept apart here.
How the values were obtained:
[1] = test system: MCF-7 breast cancer cell line; assay: Cell cycle analysis by flow cytometry; type: cell-based, human; conditions: 24 h
UACC-62 = assay: NCI-60 one-dose SRB screen (Melanoma); type: cell-based; conditions: Homo sapiens, single dose 10 µM, 48 h, read-out: Growth inhibition percent (GI %)
[2] = test system: MCF-7 breast cancer cell line; assay: Apoptotic assay, Annexin V-FITC/propidium iodide; type: cell-based, human
Protocol: S.1.4. Cell cycle analysis and Apoptotic assay
S.1.4.1. Cell cycle analysis […]
(§1) Briefly, cell lines were cultured and incubated with each of the tested compounds for 48 h. Then, the cells were collected by centrifugation and resuspended in 500 μl of 1X binding buffer. 5 μl of Annexin V-FITC was added and 5 μl of propidium iodide (PI […], optional.). The cells were incubated at room temperature for 5 min in the dark. Annexin V-FITC binding was analyzed by flow cytometry (Ex = 488 nm; Em = 530 nm) using FITC signal detector and PI staining was analyzed by the phycoerythrin emission signal detector.
S.1.4.2. Apoptotic assay: cell lines were cultured and incubated with each of the tested compounds for 48 h.
as §1, with “Then,” for “Briefly, cell lines were cultured and incubated with each of the tested compounds for 48 h. Then,”, “the” for “The”

[3] = test system: MCF-7 breast cancer cell line; assay: In vitro cytotoxicity, MTT assay; conditions: Homo sapiens
Protocol: In vitro cytotoxic activity:
Firstly, cultures were delivered into sterile area then each vial was supplied with 3 mL of medium or balanced salt solution free from phenol red and serum. Cultures were subjected to incubation foe 2-4 g. After the incubation period, MTT solubilization solution was added to remove the produced formazan crystals. Spectrophotometric measurement of absorbance was carried out at 690 nm for the background which then subtracted from absorbance measured at 570 nm. Five different drug concentrations were used 100, 25, 6.3, 1.6 and 0.4 nM and measured in triplicate.
was determined using Annexin V-FITC Apoptosis Detection Kit (Bio Vision) according to the manufacturer’s procedures. Briefly, cell lines were cultured and incubated with each of the tested compounds for 48 h. Then, the cells were collected by centrifugation and resuspended in 500 μl of 1X binding buffer. 5 μl of Annexin V-FITC was added and 5 μl of propidium iodide (PI 50 mg/ml, optional.). The cells were incubated at room temperature for
Then, the cells were collected by centrifugation and resuspended in 500 μl of 1X binding buffer. 5 μl of Annexin V-FITC was added and 5 μl of propidium iodide (PI 50 mg/ml, optional.). the cells were incubated at room temperature for 5 min in the dark.

MDA-MB-468 = assay: NCI-60 one-dose SRB screen (Breast Cancer); type: cell-based; conditions: Homo sapiens, single dose 10 µM, 48 h, read-out: Growth inhibition percent (GI %)
BT-549 = assay: NCI-60 one-dose SRB screen (Breast Cancer); type: cell-based; conditions: Homo sapiens, single dose 10 µM, 48 h, read-out: Growth inhibition percent (GI %)
MCF-7 = assay: NCI-60 one-dose SRB screen (Breast Cancer); type: cell-based; conditions: Homo sapiens, MCF7, single dose 10 µM, 48 h, read-out: Growth inhibition percent (GI %)
HS 578T = assay: NCI-60 one-dose SRB screen (Breast Cancer); type: cell-based; conditions: Homo sapiens, single dose 10 µM, 48 h, read-out: Growth inhibition percent (GI %)
MDA-MB-231/ATCC = assay: NCI-60 one-dose SRB screen (Breast Cancer); type: cell-based; conditions: Homo sapiens, single dose 10 µM, 48 h, read-out: Growth inhibition percent (GI %)
T-47D = assay: NCI-60 one-dose SRB screen (Breast Cancer); type: cell-based; conditions: Homo sapiens, T47D, single dose 10 µM, 48 h, read-out: Growth inhibition percent (GI %)
CCRF-CEM = assay: NCI-60 one-dose SRB screen (Leukemia); type: cell-based; conditions: Homo sapiens, single dose 10 µM, 48 h, read-out: Growth inhibition percent (GI %)
SR = assay: NCI-60 one-dose SRB screen (Leukemia); type: cell-based; conditions: Homo sapiens, single dose 10 µM, 48 h, read-out: Growth inhibition percent (GI %)
K-562 = assay: NCI-60 one-dose SRB screen (Leukemia); type: cell-based; conditions: Homo sapiens, K562, single dose 10 µM, 48 h, read-out: Growth inhibition percent (GI %)
MOLT-4 = assay: NCI-60 one-dose SRB screen (Leukemia); type: cell-based; conditions: Homo sapiens, single dose 10 µM, 48 h, read-out: Growth inhibition percent (GI %)
HL-60(TB) = assay: NCI-60 one-dose SRB screen (Leukemia); type: cell-based; conditions: Homo sapiens, single dose 10 µM, 48 h, read-out: Growth inhibition percent (GI %)
RPMI-8226 = assay: NCI-60 one-dose SRB screen (Leukemia); type: cell-based; conditions: Homo sapiens, single dose 10 µM, 48 h, read-out: Growth inhibition percent (GI %)
hCA IX = hCA IX (Homo sapiens, UniProt Q16790); assay: CA inhibitory activity, spectrophotometric p-NPA assay; type: biochemical; conditions: p-NPA substrate, pH 7.5, 25 °C, triplicate; read-out: IC50 (µM) ± SD hCA IX
Protocol: The software used to calculate CA IC50 along with statistical analysis of the results is GraphPad Prism 9.00. Results were estimated by using one-way ANOVA and the Bonferroni’s multiple comparisons posthoc test was performed (P < 0.05) [46]
Carbonic anhydrase inhibitory activity:
The spectrophotometric assay was conducted in HEPES-Tris buffer, NaCl of pH 7.5 (20mM) at 25◦C. Each inhibitory well-consisted of 50 μL of assay buffer solution, 20 μL of hCA enzyme solution (20 ng/μL in Assay Buffer), and 50 μL of test compound in HPLC grade DMSO (maintain 10% of the final concentration). The mixture solution was
Substrate p-nitrophenyl acetate (p-NPA) (0.7mM) was prepared in HPLC grade methanol and the reaction was started by adding 20 μL to a well in a 96-well-plate. The amount of product formed was measured for 30 min continuously at 1 min intervals at 400 nm in a 96-well-plate using xMARK microplate spectrophotometer, Bio-Rad (USA). The activity of the controlled compound was taken as 100%. All experiments were carried out in triplicates of each used concentration, and results are represented as a

[4] = test system: panel of 60 cancer cell lines; assay: NCI-60 one-dose SRB screen, range over the whole panel; type: cell-based; conditions: Homo sapiens; single dose 10 µM, SRB assay, range over the tested cell lines; read-out: growth inhibition (GI %) range over the panels
Protocol: The National Cancer Institute (NCI) Developmental Therapeutic Program (www.dtp.nci.nih.gov) selected the 20 novel synthesized compounds 4a-e, 5a-e, 6a-c, 9a-e, 10 and 11 to test for their anticancer activity at a single dose of 10 µM using SRB assay. […] Supplementary Data S3; Table S1 presents the detailed screening results of the most promising compounds. The preliminary screening’s detailed results for the remaining compounds are elucidated in the (Supplementary Data S3; Table S2).
The guidelines of the Drug Evaluation Branch’s protocol at the NCI in Bethesda served as the basis for the in vitro anticancer screening assays. at one dose 10 µM against a panel of 60 cancer cell lines. The human tumor cell lines used belonged to nine panels: leukemia, melanoma, lung, colon, CNS, ovarian, renal, prostate and breast cancers using the sulforhodamine B (SRB) assay in a 48 h drug exposure protocol.

[5] = MCF-7, hypoxic conditions, at IC50 (3.50 µM)
[6] = MCF-7, normal conditions, at IC50 (5.21 µM)

SMILES	inhibition at 10 µM (UACC-62) [%]	inhibition at 10 µM (MDA-MB-468) [%]	inhibition at 10 µM (BT-549) [%]	inhibition at 10 µM (MCF-7) [%]	inhibition at 10 µM (HS 578T) [%]	inhibition at 10 µM (MDA-MB-231/ATCC) [%]	inhibition at 10 µM (T-47D) [%]	inhibition at 10 µM (CCRF-CEM) [%]	inhibition at 10 µM (SR) [%]	inhibition at 10 µM (K-562) [%]	inhibition at 10 µM (MOLT-4) [%]	inhibition at 10 µM (HL-60(TB)) [%]	inhibition at 10 µM (RPMI-8226) [%]	also measured
CCOC(=O)c1ccc(NC(=O)COC(=O)c2cn(-c3ccc(S(N)(=O)=O)cc3)nc2-c2ccc(C)cc2)cc1 [Compound 5b, 2-[(4-(Ethoxycarbonyl)phenyl)amino]-2-oxoethyl 1-(4-sulfamoylphenyl)-3-(p-tolyl)-1H-pyrazole-4-carboxylate]	53.4	52.5	39.7	78.6	57.9	27.8	53.5	75.4	73.4	74.5	83.8	70.2	64.1	DNA content % G0-G1 [1, 5]: 48.13%; DNA content % G2/M [1, 5]: 32.28%; DNA content % S [1, 5]: 19.59%; DNA content % G0-G1 [1, 6]: 67.39%; DNA content % G2/M [1, 6]: 3.05%; DNA content % S [1, 6]: 29.56%; Apoptosis % Early % ([2]; MCF-7, hypoxic conditions): 21.41%; Apoptosis % Late % ([2]; MCF-7, hypoxic conditions): 11.49%; Apoptosis % Total % ([2]; MCF-7, hypoxic conditions): 37.31%; Necrosis % ([2]; MCF-7, hypoxic conditions): 4.41%; Apoptosis % Early % ([2]; MCF-7, normal conditions): 13.52%; Apoptosis % Late % ([2]; MCF-7, normal conditions): 25.05%; Necrosis % ([2]; MCF-7, normal conditions): 3.76%; IC50 ([3]; MCF7, read-out: IC50 (µM) ± SD cytotoxic activity, MCF-7, MTT, normal conditions): 5.21 ± 0.21 µM; IC50 ([3]; MCF7, read-out: IC50 (µM) ± SD cytotoxic activity, MCF-7, MTT, under hypoxia): 3.5 ± 0.14 µM
NS(=O)(=O)c1ccc(NC(=O)COC(=O)c2cn(-c3ccc(S(N)(=O)=O)cc3)nc2-c2ccc(Br)cc2)cc1 [Compound 4d, 2-Oxo-2-[(4-sulfamoylphenyl)amino] ethyl 3-(4-bromophenyl)-1-(4-sulfamoylphenyl)-1H-pyrazole-4-carboxylate]	11.9	66.5	79.9	56.4	36.9	33.9	52.3	60.2	22.9	82.5	60.1	37.6	< 5	IC50 (hCA IX): 0.5 µM and 0.509 µM; inhibition at 10 µM [4]: 8.46 to 86.5%

From article PMC12454493, “Insight on novel sulfamoylphenyl pyrazole derivatives as anticancer carbonic anhydrase inhibitors” (Molecular Diversity, 2024)
